Biological target: T1, NOV2 (Novosphingobium aromaticivorans, UniProt Q2G4H8)
T1 sequence (Q2G4H8 1-497): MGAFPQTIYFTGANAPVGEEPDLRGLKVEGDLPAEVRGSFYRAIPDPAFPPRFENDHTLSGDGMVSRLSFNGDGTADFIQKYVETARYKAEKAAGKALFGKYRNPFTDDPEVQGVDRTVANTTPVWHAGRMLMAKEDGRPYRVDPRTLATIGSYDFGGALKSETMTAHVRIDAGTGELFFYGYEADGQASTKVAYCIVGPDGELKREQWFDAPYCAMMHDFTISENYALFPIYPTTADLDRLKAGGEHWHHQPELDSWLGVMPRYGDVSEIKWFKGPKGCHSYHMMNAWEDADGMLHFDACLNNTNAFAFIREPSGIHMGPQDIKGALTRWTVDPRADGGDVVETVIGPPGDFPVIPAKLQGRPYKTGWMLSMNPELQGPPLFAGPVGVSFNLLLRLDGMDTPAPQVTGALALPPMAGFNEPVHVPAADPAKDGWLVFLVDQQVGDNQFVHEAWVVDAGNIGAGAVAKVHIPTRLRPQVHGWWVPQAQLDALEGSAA
Experiment: EPR of Fe-NO adduct and […] Mössbauer
Assay type: binding
Conditions: anaerobic, NO present for EPR

Row | Structure (SMILES) | EPR of Fe-NO adduct and 57Fe Mössbauer (4 equiv substrate, pH 8.5) | EPR of Fe-NO adduct and 57Fe Mössbauer (4-10 equiv substrate, pH 8.5 or 7.5)
1 | Oc1ccc(/C=C/c2cc(O)cc(O)c2)cc1 [resveratrol] | The resveratrol ES+NO of NOV2 showed EPR spectra (Figure 5D) similar to those with piceatannol | –
2 | Oc1cc(O)cc(/C=C/c2ccc(O)c(O)c2)c1 [piceatannol] | – | nearly all active sites had substrate bound
